We go through 34 compounds from patent publication US20050197338A1, “Substituted pyrazole urea compounds for the treatment of inflammation” (priority 2003, published 2005).

For the test, the target named is T1, human IKK-2 (rhIKK-2 homodimer) (Homo sapiens, UniProt O14920).
T1 construct: FLAG (DYKDDDDKD) (C); made in house; host or cells: insect cells (baculovirus, pFastBac)
T1 sequence (O14920 1-756): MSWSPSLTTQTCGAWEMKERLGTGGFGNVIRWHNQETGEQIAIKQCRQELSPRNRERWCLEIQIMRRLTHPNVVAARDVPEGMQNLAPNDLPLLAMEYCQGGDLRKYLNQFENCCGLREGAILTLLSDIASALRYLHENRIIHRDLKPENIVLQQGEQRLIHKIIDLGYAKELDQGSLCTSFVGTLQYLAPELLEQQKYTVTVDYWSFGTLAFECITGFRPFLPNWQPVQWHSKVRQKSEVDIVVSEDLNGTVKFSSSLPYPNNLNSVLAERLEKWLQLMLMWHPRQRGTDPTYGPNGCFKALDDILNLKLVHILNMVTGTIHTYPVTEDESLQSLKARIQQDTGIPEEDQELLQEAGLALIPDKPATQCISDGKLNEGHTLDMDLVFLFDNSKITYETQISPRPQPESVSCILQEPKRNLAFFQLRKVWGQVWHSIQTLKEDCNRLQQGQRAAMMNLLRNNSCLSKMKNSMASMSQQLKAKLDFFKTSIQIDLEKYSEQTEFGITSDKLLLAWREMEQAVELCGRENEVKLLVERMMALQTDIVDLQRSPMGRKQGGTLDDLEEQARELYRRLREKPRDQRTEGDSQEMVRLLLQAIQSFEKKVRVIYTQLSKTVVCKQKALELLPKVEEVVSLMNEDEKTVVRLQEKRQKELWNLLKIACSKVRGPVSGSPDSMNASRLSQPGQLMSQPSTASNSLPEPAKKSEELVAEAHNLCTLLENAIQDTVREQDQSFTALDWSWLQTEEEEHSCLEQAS
The test can be described thus: IKK-2 Resin Enzyme Assay (Human IKK-2 Enzyme Assay). Format: biochemical. The conditions noted are these: human IKK-2, resin enzyme assay; read-out: IC50 (μM) hIKK-2. The procedure, abridged:
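C-terminally FLAG-tagged human IKK-2 homodimer, baculovirus-expressed in insect cells and anti-FLAG purified. Reaction mix: 5 μM biotinylated IκBα peptide (Ser32/Ser36 region), 1 μM ATP with [γ-33P]ATP, 2 mM MgCl2, 2 mM MnCl2, 10 mM NaF, 1 mM DTT, 25 mM HEPES pH 7.6. Incubated 30 min at 25 °C; IC50 derived.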

With `NC(=O)Nc1cn(-c2cccc(-c3cn[nH]c3)c2)nc1C(N)=O` [Example 57, 4-[(aminocarbonyl)amino]-1-[3-(1H-pyrazol-4-yl)phenyl]-1H-pyrazole-3-carboxamide], the IC50 came to 0.29 µM.

Regarding `NC(=O)Nc1cn(-c2ccc(-c3ccc(C(=O)NCc4ccccc4F)c(F)c3)cc2)nc1C(N)=O` [Example 157, 4-[(aminocarbonyl)amino]-1-(3′-fluoro-4′-{[(2-fluorobenzyl)amino]carbonyl}-1,1′-biphenyl-4-yl)-1H-pyrazole-3-carboxamide], the IC50 is 8.08 µM.

Turning to `NC(=O)Nc1cn(-c2cccc(-c3ccc(C4CCCCC4)cc3)c2)nc1C(N)=O` [Example 375, 4-[(aminocarbonyl)amino]-1-(4′-cyclohexyl-1,1′-biphenyl-3-yl)-1H-pyrazole-3-carboxamide], the IC50 was greater than 20 µM.

With `COc1ccccc1-c1cccc(-n2cc(NC(N)=O)c(C(N)=O)n2)c1` [Example 88, 4-[(aminocarbonyl)amino]-1-(2′-methoxy-1,1′-biphenyl-3-yl)-1H-pyrazole-3-carboxamide], the IC50 was 3.2 µM.

For `NC(=O)Nc1cn(-c2cccc(-c3ccccc3)c2)nc1C(N)=O` [Example 339, 4-[(aminocarbonyl)amino]-1-(1,1′-biphenyl-3-yl)-1H-pyrazole-3-carboxamide], the IC50 was greater than 20 µM.

For `CS(=O)(=O)c1ccc(-c2cccc(-n3cc(NC(N)=O)c(C(N)=O)n3)c2)cc1` [Example 374, 4-[(aminocarbonyl)amino]-1-[4′-(methylsulfonyl)-1,1′-biphenyl-3-yl]-1H-pyrazole-3-carboxamide], the IC50 is 0.544 µM.

For `CCc1cc(-c2cccc(O)c2)ccc1-n1cc(NC(N)=O)c(C(N)=O)n1` [Example 282, 4-[(aminocarbonyl)amino]-1-(3-ethyl-3′-hydroxy-1,1′-biphenyl-4-yl)-1H-pyrazole-3-carboxamide], the concentration for half-maximal inhibition (IC50) is 12.6 µM.

In the case of `CCCCCc1ccc(-c2ccc(-n3cc(C(N)=O)c(NC(N)=O)n3)cc2)cc1` [Example 138], the concentration for half-maximal inhibition (IC50) was greater than 20 µM.

With `NC(=O)Nc1cn(-c2ccc(-c3ccccc3O)c(C(F)(F)F)c2)nc1C(N)=O` [Example 234, 4-[(aminocarbonyl)amino]-1-[2′-hydroxy-2-(trifluoromethyl)-1,1′-biphenyl-4-yl]-1H-pyrazole-3-carboxamide], the half-inhibitory concentration (IC50) was found to be 1.71 µM.

On to `N#CCc1ccc(-c2cccc(-n3cc(NC(N)=O)c(C(N)=O)n3)c2)cc1` [Example 44, 4-[(aminocarbonyl)amino]-1-[4′-(cyanomethyl)-1,1′-biphenyl-3-yl]-1H-pyrazole-3-carboxamide], for which the half-inhibitory concentration (IC50) is 2.08 µM.

For `N#CCOc1cccc(-c2ccc(-n3cc(NC(N)=O)c(C(N)=O)n3)cc2F)c1` [Example 227, 4-[(aminocarbonyl)amino]-1-[3′-(cyanomethoxy)-2-fluoro-1,1′-biphenyl-4-yl]-1H-pyrazole-3-carboxamide], the 50% inhibitory concentration (IC50) stood at 1.53 µM.

Regarding `Cc1cc(-n2cc(NC(N)=O)c(C(N)=O)n2)ccc1Cl` [Example 302, 4-[(aminocarbonyl)amino]-1-(4-chloro-3-methylphenyl)-1H-pyrazole-3-carboxamide], the half-inhibitory concentration (IC50) amounted to 0.229 µM.

For `NC(=O)Nc1cn(-c2ccc(-c3ccc(CN4CCOCC4)cc3)cc2)nc1C(N)=O` [Example 34, 4-[(aminocarbonyl)amino]-1-[4′-(morpholin-4-ylmethyl)-1,1′-biphenyl-4-yl]-1H-pyrazole-3-carboxamide], the IC50 came out at 4.21 µM.

Take `NC(=O)Nc1cn(-c2ccc(-c3ccccc3CO)cc2)nc1C(N)=O` [Example 105, 4-[(aminocarbonyl)amino]-1-[2′-(hydroxymethyl)-1,1′-biphenyl-4-yl]-1H-pyrazole-3-carboxamide]: the IC50 was 0.351 µM.

As to `NC(=O)Nc1nn(-c2ccc(-c3ccc(C(F)(F)F)cc3)cc2)cc1C(N)=O` [Example 132], the half-inhibitory concentration (IC50) was 18.8 µM.

`CSc1cccc(-c2ccc(-n3cc(C(N)=O)c(NC(N)=O)n3)cc2)c1` [Example 118]: the IC50 stood at 3.07 µM.

Turning to `N#CCOc1ccccc1-c1cccc(-n2cc(NC(N)=O)c(C(N)=O)n2)c1` [Example 176, 4-[(aminocarbonyl)amino]-1-[2′-(cyanomethoxy)-1,1′-biphenyl-3-yl]-1H-pyrazole-3-carboxamide], the half-inhibitory concentration (IC50) is 0.18 µM.

In the case of `CNC(=O)c1cccc(-c2cccc(-n3cc(NC(N)=O)c(C(N)=O)n3)c2)c1` [Example 83, 4-[(aminocarbonyl)amino]-1-{3′-[(methylamino)carbonyl]-1,1′-biphenyl-3-yl}-1H-pyrazole-3-carboxamide], the 50% inhibitory concentration (IC50) is 1.29 µM.

In the case of `NC(=O)Nc1cn(-c2ccc(-c3cccc(C(=O)O)c3)cc2)nc1C(N)=O` [Example 96, 4′-{3-(aminocarbonyl)-4-[(aminocarbonyl)amino]-1H-pyrazol-1-yl}-1,1′-biphenyl-3-carboxylic acid], the concentration for half-maximal inhibition (IC50) amounted to 1.45 µM.

Turning to `NC(=O)Nc1cn(-c2cccc(-c3cccc(CO)c3)c2)nc1C(N)=O` [Example 49, 4-[(aminocarbonyl)amino]-1-[3′-(hydroxymethyl)-1,1′-biphenyl-3-yl]-1H-pyrazole-3-carboxamide], the 50% inhibitory concentration (IC50) stood at 2.48 µM.

For `NC(=O)Nc1cn(-c2ccc(-c3cccc(OC(F)(F)F)c3)cc2)nc1C(N)=O` [Example 24, 4-[(aminocarbonyl)amino]-1-[3′-(trifluoromethoxy)-1,1′-biphenyl-4-yl]-1H-pyrazole-3-carboxamide], the IC50 turned out to be 7.73 µM.

Turning to `CC(=O)Nc1ccc(-c2cccc(-n3cc(NC(N)=O)c(C(N)=O)n3)c2)cc1` [Example 55, 1-[4′-(acetylamino)-1,1′-biphenyl-3-yl]-4-[(aminocarbonyl)amino]-1H-pyrazole-3-carboxamide], the half-maximal inhibitory concentration (IC50) is 1.04 µM.

In the case of `COc1ccc(CNC(=O)c2nn(-c3cccc(O)c3)cc2NC(N)=O)cc1` [Example 299, 1-(3-hydroxy-phenyl)-4-ureido-1H-pyrazole-3-carboxylic acid 4-methoxy-benzylamide], the IC50 stood at 0.595 µM.

Regarding `NC(=O)Nc1cn(-c2cccc(-c3cccc(C(F)(F)F)c3)c2)nc1C(N)=O` [Example 367, 4-[(aminocarbonyl)amino]-1-[3′-(trifluoromethyl)-1,1′-biphenyl-3-yl]-1H-pyrazole-3-carboxamide], the IC50 is greater than 20 µM.

For `NC(=O)Nc1cn(-c2cccc(-c3ccccc3-c3ccccc3)c2)nc1C(N)=O` [Example 371, 4-[(aminocarbonyl)amino]-1-(1,1′:2′,1″-terphenyl-3-yl)-1H-pyrazole-3-carboxamide], the IC50 stood at 1.09 µM.

In the case of `NC(=O)Nc1nn(-c2ccc(-c3cccc(F)c3F)cc2)cc1C(N)=O` [Example 112], the half-inhibitory concentration (IC50) was 1.99 µM.

With `NC(=O)Nc1cn(-c2cccc(-c3ccc(C(=O)O)cc3)c2)nc1C(N)=O` [Example 58, 3′-{3-(aminocarbonyl)-4-[(aminocarbonyl)amino]-1H-pyrazol-1-yl}-1,1′-biphenyl-4-carboxylic acid], the half-inhibitory concentration (IC50) turned out to be 2.81 µM.

As for `NC(=O)Nc1cn(-c2ccc(S(=O)(=O)c3cccc(F)c3)cc2)nc1C(N)=O` [Example 203, 1-(1-(4-(3-fluorophenylsulfonyl)phenyl)-3-carbamoyl-1H-pyrazol-4-yl)urea], the IC50 came out at 0.153 µM.

For the compound `NC(=O)Nc1cn(-c2cccc(-c3cccc4ncccc34)c2)nc1C(N)=O` [Example 60, 4-[(aminocarbonyl)amino]-1-(3-quinolin-5-ylphenyl)-1H-pyrazole-3-carboxamide], the IC50 is 3.75 µM.

On to `Cc1cc(-n2cc(NC(N)=O)c(C(N)=O)n2)ccc1-c1cc(F)ccc1O` [Example 242, 1-(5′-Fluoro-2′-hydroxy-2-methyl-biphenyl-4-yl)-4-ureido-1H-pyrazole-3-carboxylic acid amide], for which the IC50 was 1.35 µM.

Consider `NC(=O)Nc1cn(-c2ccc(-c3cccc(CO)c3)cc2)nc1C(N)=O` [Example 39, 4-[(aminocarbonyl)amino]-1-[3′-(hydroxymethyl)-1,1′-biphenyl-4-yl]-1H-pyrazole-3-carboxamide], for which the half-inhibitory concentration (IC50) was found to be 1.34 µM.

Consider `NC(=O)Nc1cn(-c2ccc(-c3ccccc3CCC(=O)O)cc2)nc1C(N)=O` [Example 379, 3-(4′-{3-(aminocarbonyl)-4-[(aminocarbonyl)amino]-1H-pyrazol-1-yl}-1,1′-biphenyl-2-yl)propanoic acid], for which the 50% inhibitory concentration (IC50) was found to be 1.95 µM.

Take `NC(=O)Nc1cn(-c2ccc(C(=O)N3CCOCC3)cc2)nc1C(N)=O` [Example 9, 4-[(aminocarbonyl)amino]-1-[4-(morpholin-4-yl-carbonyl)phenyl]-1H-pyrazole-3-carboxamide]: the half-maximal inhibitory concentration (IC50) was 1.43 µM.

On to `NC(=O)Nc1cn(-c2ccc(SC3CCCC3)cc2)nc1C(N)=O` [Example 207, 1-(3-carbamoyl-1-(4-(cyclopentylthio)phenyl)-1H-pyrazol-4-yl)urea], for which the IC50 stood at 1.32 µM.
